# Experimental data: patent US8796253B2, “Heteroaryl substituted pyrazole derivatives useful for treating hyper-proliferative disorders and diseases associated with angiogenesis” (Bayer Intellectual Property GmbH, priority 2007, dated 2014)
# Tested on: HCT-116 cells stably transfected with a Luciferase reporter gene under the control of HIF-responsive element
# Test: HIF-Luciferase Assay
# Format: cell-based
# Conditions: Homo sapiens, HCT-116, HIF-Luciferase Assay, HCT-116 reporter cells, overnight at 1% oxygen; group >10, unit inferred
# Method: HCT-116 cells stably transfected with a Luciferase reporter gene under the control of HIF-responsive element were plated in white 96- or 384-well plates at 30,000 or 5,000 cells/well, respectively, in 50 μL/well media (RPMI with 10% fetal bovine serum and 100 μg/mL Hygromycin). Cells were incubated overnight at 37° C. in a humidified incubator containing 5% CO2 under normal oxygen. The next day test compounds were added to the wells at various concentrations (0-10 μM, 0.1% final DMSO concentration) and placed in a hypoxic chamber overnight at 1% oxygen. Following the exposure to hypoxic conditions, 50 μL/well of Bright Glo reagent (Promega, Wisconsin, USA) was added to the wells and luminescence was measured after 5 min. Cells incubated under normal oxygen levels were used as background control. […] Compounds that have IC50 values between 1 μM and 10 μM include those of Examples 8, 16, 38, 39, 40, 41, 42, 43, 47, 48, 53, 54, 56, 57, 66, 69, and 72.
row,IC50 [nM],Structure (SMILES)
1,> 10000,"Cc1ccc(Cn2nc(-c3nc4cc(Cc5ccccc5)ccc4o3)cc2C)cc1 [Example 33, 5-benzyl-2-[5-methyl-1-(4-methylbenzyl)-1H-pyrazol-3-yl]-1,3-benzoxazole]"
2,> 10000,"Cc1ccc(Cn2nc(C3=NC(c4ccc(C(C)(C)C)cc4)CO3)cc2C)cc1 (stereo not shown) [Example 70, 4-(4-tert-butylphenyl)-2-[5-methyl-1-(4-methylbenzyl)-1H-pyrazol-3-yl]-4,5-dihydro-1,3-oxazole]"

# Same assay, conditions: Homo sapiens, HCT-116, HIF-Luciferase Assay, HCT-116 reporter cells, overnight at 1% oxygen; individual values
row,IC50 [nM],Structure (SMILES)
1,6,"Cc1ccc(Cn2nc(-c3nc(-c4ccc(C5CCCCC5)cc4)c[nH]3)cc2C)cc1 [Example 68, 3-[4-(4-cyclohexylphenyl)-1H-imidazol-2-yl]-5-methyl-1-(4-methylbenzyl)-1H-pyrazole]"
2,30,Cc1ccc(Cn2nc(-c3nc(-c4ccc(OC(F)(F)F)cc4)no3)cc2C)cc1 [Example 1]

# Same assay, conditions: Homo sapiens, HCT-116, HIF-Luciferase Assay, HCT-116 reporter cells, overnight at 1% oxygen; potency groups
row,Structure (SMILES),IC50 [nM]
1,"Cc1ccc(Cn2nc(-c3nc4ccc(C(C)(C)C)cc4[nH]3)cc2C)cc1 [Example 43, 6-tert-butyl-2-[5-methyl-1-(4-methylbenzyl)-1H-pyrazol-3-yl]-1H-benzimidazole]",1000 to 10000
2,"Cc1ccc(Cn2nc(-c3nc4cc5ccccc5cc4[nH]3)cc2C)cc1 [Example 47, 2-[5-methyl-1-(4-methylbenzyl)-1H-pyrazol-3-yl]-1H-naphtho[2,3-d]imidazole]",1000 to 10000
3,"Cc1ccc(Cn2nc(-c3nc(-c4ccc(N5CCCCC5)cc4)no3)cc2C)cc1 [Example 12, 1-(4-{5-[5-methyl-1-(4-methylbenzyl)-1H-pyrazol-3-yl]-1,2,4-oxadiazol-3-yl}phenyl)piperidine]",≤ 1000
4,"Cc1ccc(Cn2nc(-c3nc(-c4ccc(C(F)(F)F)nc4)no3)cc2C)cc1 [Example 17, 5-{5-[5-methyl-1-(4-methylbenzyl)-1H-pyrazol-3-yl]-1,2,4-oxadiazol-3-yl}-2-(trifluoromethyl)pyridine]",≤ 1000
5,"Cc1ccc(Cn2nc(-c3nc(-c4ccc(-c5ccc(OC(F)(F)F)cc5)cc4)no3)cc2C)cc1 [Example 5, 5-[5-methyl-1-(4-methylbenzyl)-1H-pyrazol-3-yl]-3-[4′-(trifluoromethoxy)biphenyl-4-yl]-1,2,4-oxadiazole]",≤ 1000
6,Cc1ccc(Cn2nc(-c3nc(-c4ccc(OC(F)(F)F)cc4)no3)cc2C)cc1 [Example 1],≤ 1000

# The remaining lines, values ahead:
row,IC50 [nM],Structure (SMILES)
1,≤ 1000,"Cc1ccc(Cn2nc(-c3nc(-c4ccc(C5CCCCC5)cc4)c[nH]3)cc2C)cc1 [Example 68, 3-[4-(4-cyclohexylphenyl)-1H-imidazol-2-yl]-5-methyl-1-(4-methylbenzyl)-1H-pyrazole]"
2,≤ 1000,"Cc1ccc(Cn2nc(-c3nc(-c4ccccc4)co3)cc2C)cc1 [Example 74, 2-[5-Methyl-1-(4-methylbenzyl)-1H-pyrazol-3-yl]-4-phenyl-1,3-oxazole]"
3,≤ 1000,"Cc1ccc(Cn2nc(-c3nc(-c4ccc(Br)cc4)co3)cc2C)cc1 [Example 75, 4-(4-bromophenyl)-2-[5-methyl-1-(4-methylbenzyl)-1H-pyrazol-3-yl]-1,3-oxazole]"
